Measured values as given in patent publication US20200016152A1, “TREATMENT OF DISEASES” (Ampio Pharmaceuticals, Inc., priority 2010, published 2020).

Legend:
[1] = test system: RhoA; experiment: Rho activation assay (GLISA) in retinal endothelial cells; assay type: cell-based, human; details: for active Rho A levels induced: thrombin alone
Experimental: This experiment was performed using a commercially-available Rho activation assay (GLISA) purchased from Cytoskeleton, Denver, Colo., following the manufacturer's protocol. Briefly, passage 8 or 12 human retinal endothelial cells (ACBRI 181, Applied Cell Biology Research Institute, Kirkland, Wash.) were cultured on fibronectin-coated (1 μg/cm^2) 6-well tissue culture plates using EGM-2 culture medium (Lonza) for 24 hours in a 37° C. incubator with 5% CO2 (30,000 cells/well in total volume of 3 ml). Then, the medium was aspirated and replaced with Ultraculture medium supplemented with 0.1% fetal bovine serum, L-glutamine, sodium pyruvate, penicillin/streptomycin and ITSS (insulin, transferrin sodium selenium) (all from Lonza) to serum starve the cells and reduce the background level of RhoA. The cells were cultured for 24 hours in a 37° C. incubator with 5% CO2. Test compounds diluted in HBSS were placed in the incubator to equilibrate before addition to the cells. Then, 150 μl of each test compound was added to the appropriate culture wells, and the plates were incubated in the incubator for an additional 15 minutes. Then, thrombin was added to appropriate wells. After 1 minute, the cells were washed one time with 1.5 ml phosphate buffered saline and were then lysed with 100 μl GLISA lysis buffer supplemented with protease inhibitors. The extracts were scraped, transferred to microcentrifuge tubes and transferred to ice to preserve the active form of RhoA. All extracts were then cleared of debris by spinning at 10,000 rpms for 2 minutes at 4° C. The supernatants were transferred to new tubes and placed back on ice. Aliquots of each extract were removed for the GLISA assay and for protein determinations. All protein concentrations were within 10%, and the extracts were used at the achieved concentrations (equates to 15 total protein per well). The GLISA assay was performed using the reagents supplied in the kit.

[2] = test system: human retinal endothelial cells; experiment: Actin stress fiber formation (rhodamine-phalloidin F-actin staining); assay type: cell-based
Experimental: Passage 12 human retinal endothelial cells (ACBRI 181, Cell Systems Corporation (exclusive distributor for Applied Cell Biology Research Institute), Kirkland, Wash.) were seeded into 16-chamber glass slides coated with 5 μg/cm^2 fibronectin at 5000 cells per well in a total volume of 200 μl of EGM-2 medium (Lonza). The slides were cultured in a 37° C. incubator with 5% CO2 for 48 hours with daily medium changes. Then, the test compounds (DA-DKP, S1P and TNFα), diluted in Hanks Balanced Salt Solution (HBSS; Lonza), were added to give the following final concentrations: DA-DKP (100 μM) (Sigma), TNFα (1 ng/ml) (Sigma), and S1P (1 μM) (Sigma). The slides were incubated with the test compounds for 15 minutes or 3 hours in a 37° C. incubator with 5% CO2. After this incubation, the medium was aspirated, and the cells were fixed using 3.6% formaldehyde in phosphate buffered saline (PBS) for ten minutes at room temperature. All wells were then washed two times with 100 μl PBS. The cells were permeabilized using a 0.1% Triton X-100 in PBS for 5 minutes. All wells were then washed two times with 100 μl PBS, and 50 μl of a 1:40 dilution of rhodamine-phalloidin (Invitrogen) in PBS was added to the cells to stain for F-actin and left on the cells for 20 minutes at room temperature. All wells were then washed two times with 100 μl PBS. Then 100 μl PBS was added to each well and the cells were observed and photographed using an inverted microscope using a rhodamine (ex530/em590) filter.

[3] = test system: passage 6 human retinal endothelial cells; experiment: ECIS transendothelial electrical resistance (TER), passage 6 retinal endothelial cells; assay type: cell-based; details: for ECIS as compared to untreated cells: monitored 50 hours
Experimental: Assays were performed to determine the effect of MR-DKP (a diketopiperazine wherein R^1 in formula I is the side chain of methionine and R^2 is side chain of arginine) on transendothelial electrical resistance (TER) of passage 6 human retinal endothelial cells (Applied Cell Systems Corporation (exclusive distributor for Applied Cell Biology Research Institute), Kirkland, Wash.). Electrical resistance was measured using the electric cell-substrate impedance sensing (ECIS) system (ECISZθ, obtained from Applied Biophysics) with 8-well multiple electrode plates (8W10E). Each well of the plates was stabilized by adding 250 μl of 10 mM cysteine (Sigma) in sterile water to each well and incubating for 30 minutes at room temperature. The wells were then washed two times with 150 μl of sterile water to remove the cysteine. All wells were then coated with 10 μg/cm^2 collagen by diluting the stock solution (0.5 mg/ml Type IV collagenin 0.25% acetic acid (Sigma) in sterile water and adding 150 μl of the resulting solution to each well. The collagen solution was incubated on the plates at 37° C. for 120 minutes and then removed. The wells were washed two times with 400 μl sterile water to remove the collagen. Next, 400 μl of EGM-2 culture medium (Lonza) was added to each well. The plates were connected to the ECISZθ system and were electrically stabilized. The EGM-2 medium was aspirated and replaced with 400 μl of EGM-2 culture medium containing 100,000 cells per well. The plates were reconnected to the ECISZθ system and incubated for 24 hours in a 37° C. incubator with 5% CO2. The EGM-2 medium was aspirated and replaced with 400 μl of EGM-2 culture medium. The plates were reconnected to the ECISZθ system and incubated for 2 hours in a 37° C. incubator with 5% CO2. Solutions of the test compound in HBSS were prepared and placed in the incubator to equilibrate. The test compound was then added to appropriate wells at the following final concentrations: MR-DKP (50 μM and 100 ECIS (resistance) was monitored for 50 hours.
Example 5 was repeated, except that the diketopiperazine used was YE-DKP (a diketopiperazine wherein R^1 in formula I is the side chain of glutamic acid and R^2 is the side chain of tyrosine). […] The increase was about 20% at its maximum.

[4] = passage 8 cells, 10.0 μM + 0.1 U/ml thrombin
[5] = passage 8 cells, 10.0 μM, no thrombin
[6] = passage 12 cells, 10.0 μM + 0.1 U/ml thrombin
[7] = passage 12 cells, 10.0 μM, no thrombin
[8] = passage 12 cells, 1.0 μM + 0.1 U/ml thrombin
[9] = passage 12 cells, 1.0 μM, no thrombin

O=c1cc(N2CCOCC2)oc2c(-c3ccccc3)cccc12 [PI3 kinase inhibitor LY 294002]
Mean OD (active RhoA) [1, 4]: 0.433 | Percent Inhibition vs. Thrombin [1, 4]: 27.86% | Mean OD (active RhoA) [1, 5]: 0.056 | Percent Inhibition vs. Untreated Control [1, 5]: 45.32% | Mean OD (active RhoA) [1, 6]: 0.685 | Percent Inhibition vs. Thrombin [1, 6]: 58.73% | Mean OD (active RhoA) [1, 7]: 0.370 | Percent Inhibition vs. Untreated Control [1, 7]: 18.70%

TNFα [reference compound]
F-actin staining pattern (stress fibers) ([2]; TNFα 1 ng/ml alone, 15 minutes to 3 hours): stress fibers were seen at all times

COc1cc2ncnc(Nc3ccc(Oc4ccccc4)cc3)c2cc1OC [Src-1 Inhibitor]
Mean OD (active RhoA) [1, 8]: 0.534 | Percent Inhibition vs. Thrombin [1, 8]: 85.85% | Mean OD (active RhoA) [1, 9]: 0.349 | Percent Inhibition vs. Untreated Control [1, 9]: 23.21%

C[C@@H]1C[C@H]2[C@@H]3CCC4=CC(=O)C=C[C@]4(C)[C@@]3(F)[C@@H](O)C[C@]2(C)[C@@]1(O)C(=O)CO [Dexamethasone]
Mean OD (active RhoA) [1, 8]: 0.826 | Percent Inhibition vs. Thrombin [1, 8]: 33.48% | Mean OD (active RhoA) [1, 9]: 0.428 | Percent Inhibition vs. Untreated Control [1, 9]: 5.83%

CSCC[C@@H]1NC(=O)[C@H](CCCNC(=N)N)NC1=O [MR-DKP]
ECIS increase at its maximum ([3]; 50 μM): around 20% | brief elevation in resistance, time window ([3]; 50 μM): 2 to 5 h | start of ECIS increase ([3]; 50 μM): about 15 hours | time at which ECIS increase became significant ([3]; 50 μM): about 18 hours | time at which resistance increased again ([3]; 50 μM): about 30 hours | time at which resistance returned to the levels of the control ([3]; 50 μM): 28 to 29 h | time of reaching significance again ([3]; 50 μM): about 33 hours | persistence of ECIS increase ([3]; 50 μM, after the second increase): persisted for the remainder of the experiment | ECIS as compared to untreated cells ([3]; 50 μM): increase in ECIS | ECIS increase at its maximum ([3]; 100 μM): around 20% | persistence of ECIS increase ([3]; 100 μM): persisted for the remainder of the experiment | start of ECIS increase ([3]; 100 μM): about 15 hours | time at which ECIS increase became significant ([3]; 100 μM): about 18 hours | time of reaching significance again ([3]; 100 μM): about 33 hours | ECIS as compared to untreated cells ([3]; 100 μM): increase in ECIS

CCCCCCCCCCCCC/C=C/[C@@H](O)[C@@H](N)COP(=O)(O)O [S1P, sphingosine-1 phosphate, reference compound]
F-actin staining pattern ([2]; S1P 1 μM alone, 15 minutes and 3 hours): actin cortical rings

O=C(O)CC[C@@H]1NC(=O)[C@H](Cc2ccc(O)cc2)NC1=O [YE-DKP]
ECIS as compared to untreated cells ([3]; 50 μM): did not show a significant increase in ECIS | ECIS increase at its maximum ([3]; 100 μM): about 20% | persistence of ECIS increase ([3]; 100 μM): persisted for the remainder of the experiment | start of ECIS increase ([3]; 100 μM): about 6 hours | time at which ECIS increase became significant ([3]; 100 μM): about 12 hours | time at which resistance increased again ([3]; 100 μM): about 29 hours | time at which resistance returned to the levels of the control ([3]; 100 μM): around 28 hours | time of reaching significance again ([3]; 100 μM): about 33 hours | ECIS as compared to untreated cells ([3]; 100 μM): increase in ECIS

Thrombin
Mean OD (active RhoA) ([1]; passage 8 cells, 0.1 U/ml thrombin alone): 0.561 | active Rho A levels induced ([1]; passage 8 cells): very high | Mean OD (active RhoA) ([1]; passage 12 cells, 0.1 U/ml thrombin alone): 1.013 | active Rho A levels induced ([1]; passage 12 cells): very high
